# Assay results reported in patent US20200268804A1, “METHODS AND COMPOSITIONS TO MAINTAIN STEM CELL QUIESCENCE” (The Board of Trustees of the Leland Stanford Junior …, priority 2016, published 2020).
# System: quiescent MuSCs
# Assay: Q-RT-PCR screening of candidate molecules for promotion of MuSC quiescence
# Format: cell-based, mouse
# Conditions: 500 quiescent MuSCs cultured 2.5 days with the molecule; gene expression signature
# Description: FIG. 8. Screening of molecules titrated at different concentrations. Heat map analysis of gene expression profiles obtained from MuSCs cultured in different concentrations of candidate molecules. In 96 well plates, 500 MuSCs were directly isolated by FACS and cultured in the presence of the candidate molecules titrated at different concentrations. After 2.5 days, cells were collected for combinatorial Q-RT-PCR to screen for the conditions that result mostly closely resemble freshly isolated MuSCs based on the gene expression profiles. A heat map for absolute deviations from expression levels of freshly isolated quiescent MuSCs (QSC) is shown. On the X axis, the molecules tested and the different dilutions employed from the working concentrations are indicated as in FIG. 16. On the Y axis the names of the genes that were tested are listed. The gene names were organized in general functional groups. Each functional group is based on the main function and role in MuSCs.
# Knowing that quiescent MuSCs have a unique transcriptional signature, we employed combinatorial QRT-PCR to screen for molecules that, when added to the medium, would promote MuSC quiescence. […]
# Single Cell Q-RT-PCR. […] Biomark data was analyzed using Q-RT-PCR Analysis software (Fluidigm). […] For each amplicon, a limit of detection (LOD) was determined by running 10-fold serial dilutions of embryonic cDNA in 6 replicates. […]
compound,measurement,value
Nc1nc(Nc2ccc(S(N)(=O)=O)cc2)nn1C(=O)c1c(F)cccc1F [JMJ-7706621],quiescence-promoting activity,novel quiescence-promoting activity
